Laboratory results from US9670213B2, “Pteridine ketone derivative and applications thereof as EGFR, BLK, and FLT3 inhibitor” (EAST CHINA UNIVERSITY OF SCIENCE AND TECHNOLOGY, priority 2012, dated 2017).

Experiments:
EGFR-L858R/T790M = EGFR-L858R/T790M (Homo sapiens (Human), UniProt P00533, L858R/T790M); experiment: In vitro EGFR kinase activity assay (Z'-Lyte); assay type: biochemical; details: read-out: Inhibitory activity on EGFR kinase (IC50, nM) T790M/L858R;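 also: Cell-free kinase reaction with peptide substrate and ATP, 1.5 h at room temperature, development cleaving unphosphorylated peptide, 10-point dilution 0.051–1000 nM, phosphopeptide as 100% phosphorylation control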
Description: (§8) Inhibitory effects in vitro of the compounds provided in the present invention on EGFR kinase activity was tested as follows:
(§9) 10 concentration gradients, from 5.1×10^−11 mol/L to 1.0×10^−6 mol/L, were set for all of the compounds to be tested.
(§10) 10 μL of kinase reaction system comprised 2.5 μL of compound solution, 5 μL of Kinase/peptide mixture, and 2.5 μL of ATP solution. 5 μL of phosphopeptide solution was used in place of kinase/peptide mixture as 100% phosphorylation control. […] After thoroughly mixing the solution within the plate, the plate was incubated at room temperature for 1.5 hours. 5 μL of DevelopmentSolution was added into each well, and then the plate was incubated at room temperature for another 1 hour, and non-phosphorylated peptide was cleaved within this period. Finally, the reaction was quenched by adding 5 μL of Stop Reagent. The Plate was measured with EnVision Multilabel Reader (Perkin Elmer). Experimental data were calculated by using GraphPad Prism version 4.0. Each experiment was repeated more than three times.

[1] = test system: H1975 (non-small cell lung cancer cells, EGFR L858R/T790M); experiment: Cell proliferation and growth inhibition analysis; assay type: cell-based; details: Homo sapiens, NCI-H1975, 72 hours, read-out: Inhibitory activity on cell proliferation (IC50, μM) H1975
Description: (§1) Cell proliferation was evaluated by MTS assay. Cells were exposed to the process conditions for 72 hours, and the number of cells for each cell line used in the experiment was adjusted according to the absorbance value (absorbance value at 490 nm was 1.3-2.2). 6 concentration gradients (0.1 nM-10 μM) were set for the compounds to be tested, with six parallel controls for each concentration.
(§2) H1975, HCC827, A549, BT474, MCF-7, SK-BR-3 cells were cultured in the corresponding medium. Upon recovery, the cells were passaged at least two times and then used in experiments. Cells in Log phase were trypsinized and resuspended in the medium. H1975 (1000 cells per well), BT474 (1500 cells per well), MCF-7 (1500 cells per well), HCC827 (2000 cells per well), SK-BR-3 (2000 cells per well), A549 (2000 cells per well) were seeded into 96-well plates, the volume was 100 μL, and 6 rows and 7 columns were set. The plate was placed in an incubator at 37° C. of 5% carbon dioxide overnight. Compounds were dissolved in DMSO to obtain the concentration of […], and then gradually diluted to obtain the concentration of compound as […], 0.1 μM, 0.01 μM, 0.001 μM, 0.0001 μM. 2 μL of compound solution was added into 998 μL of medium, and the resulting mixture was thoroughly mixed. 100 μL of mixture was added into 96-well plate. […] After the cells were cultured for 68 hours, 20 μL of MTT (5 mg/mL) was added. After 4 hours, the supernatant was discarded and 150 μL of DMSO was added. The resulting system was shaken for 10 minutes, and the plate was read with Synergy HT (Bio TeK) (OD490). The data was calculated by GraphPad Prism version 4.0, and IC50 was obtained by non-linear regression model using dose-response curve.

[2] = test system: HCC827 (non-small cell lung cancer cells, EGFR del E746-A750); experiment: Cell proliferation and growth inhibition analysis; assay type: cell-based; details: Homo sapiens, 72 hours, read-out: Inhibitory activity on cell proliferation (IC50, μM) HCC827
Description: as §1, §2

EGFR-L858R = EGFR-L858R (Homo sapiens (Human), UniProt P00533, L858R); experiment: In vitro EGFR kinase activity assay (Z'-Lyte); assay type: biochemical; details: read-out: Inhibitory activity on EGFR kinase (IC50, nM) L858R;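 also: Cell-free kinase reaction with peptide substrate and ATP, 1.5 h at room temperature, then development step cleaving non-phosphorylated peptide, 10-point dilution series 0.051–1000 nM, phosphopeptide as 100% phosphorylation control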
Description: as §8, §9, §10

FLT3 = FLT3 (Homo sapiens (Human), UniProt P36888); experiment: FLT3 kinase activity assay (Caliper); assay type: biochemical; details: read-out: Inhibitory activity on kinase (IC50, nM) FLT3
Description: (§3) Preparation of 1× kinase matrix buffer and stop buffer.
(§4) Preparation of compound solution. The compound was dissolved in 100% DMSO to a concentration, which was 50 times of the final highest inhibiting-concentration. 100 μL of the compound solution as said above was transferred into wells of 96-well plate. The above compound solution was sequentially diluted to the final desired concentration. In two blank wells of same 96-well plate, 100 μL of 100% DMSO was added as no-compound and no-kinase control, and this plate was used as the original plate.
(§5) Preparation of intermediate plate. 10 μL of compound solution was transferred from the original plate to another 96-well plate as the intermediate plate; 90 μL of 1× kinase buffer was added into each well of the intermediate plate, and the intermediate plate was shaken for 10 min.
(§6) Preparation of assay plate. 5 μL of solution from each well of intermediate plate was added into a 384-well plate, and repeated controls were set.
(§7) Kinase reaction. 2.5× kinase solution and 2.5× peptide solution were prepared. 2.5× kinase solution was transferred into assay plate. Assay plate comprised 5 μL of the compound solution in 10% DMSO. 10 μL of 2.5× kinase solution was added in each well of 384-well assay plate. […] 2.5× peptide solution was added into each well. After incubated at 28° C. for an appropriate time, 25 μL of stop buffer was added to quench the reaction. Experimental data were collected in Caliper. Curve was fitted.

BLK = BLK (Homo sapiens (Human), UniProt P51451); experiment: BLK kinase activity assay (Caliper); assay type: biochemical; details: read-out: Inhibitory activity on kinase (IC50, nM) BLK
Description: as §3, §4, §5, §6, §7

wild-type EGFR = wild-type EGFR (Homo sapiens (Human), UniProt P00533); experiment: In vitro EGFR kinase activity assay (Z'-Lyte); assay type: biochemical; details: EGFR WT; read-out: Inhibitory activity on EGFR kinase (IC50, nM) WT;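 also: Ten-point dose series from 5.1×10^−11 to 1.0×10^−6 mol/L, kinase reaction 1.5 h at room temperature, then 1 h development cleaving unphosphorylated peptide, phosphopeptide as 100% phosphorylation control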
Sequence of wild-type EGFR (P00533 25-1210): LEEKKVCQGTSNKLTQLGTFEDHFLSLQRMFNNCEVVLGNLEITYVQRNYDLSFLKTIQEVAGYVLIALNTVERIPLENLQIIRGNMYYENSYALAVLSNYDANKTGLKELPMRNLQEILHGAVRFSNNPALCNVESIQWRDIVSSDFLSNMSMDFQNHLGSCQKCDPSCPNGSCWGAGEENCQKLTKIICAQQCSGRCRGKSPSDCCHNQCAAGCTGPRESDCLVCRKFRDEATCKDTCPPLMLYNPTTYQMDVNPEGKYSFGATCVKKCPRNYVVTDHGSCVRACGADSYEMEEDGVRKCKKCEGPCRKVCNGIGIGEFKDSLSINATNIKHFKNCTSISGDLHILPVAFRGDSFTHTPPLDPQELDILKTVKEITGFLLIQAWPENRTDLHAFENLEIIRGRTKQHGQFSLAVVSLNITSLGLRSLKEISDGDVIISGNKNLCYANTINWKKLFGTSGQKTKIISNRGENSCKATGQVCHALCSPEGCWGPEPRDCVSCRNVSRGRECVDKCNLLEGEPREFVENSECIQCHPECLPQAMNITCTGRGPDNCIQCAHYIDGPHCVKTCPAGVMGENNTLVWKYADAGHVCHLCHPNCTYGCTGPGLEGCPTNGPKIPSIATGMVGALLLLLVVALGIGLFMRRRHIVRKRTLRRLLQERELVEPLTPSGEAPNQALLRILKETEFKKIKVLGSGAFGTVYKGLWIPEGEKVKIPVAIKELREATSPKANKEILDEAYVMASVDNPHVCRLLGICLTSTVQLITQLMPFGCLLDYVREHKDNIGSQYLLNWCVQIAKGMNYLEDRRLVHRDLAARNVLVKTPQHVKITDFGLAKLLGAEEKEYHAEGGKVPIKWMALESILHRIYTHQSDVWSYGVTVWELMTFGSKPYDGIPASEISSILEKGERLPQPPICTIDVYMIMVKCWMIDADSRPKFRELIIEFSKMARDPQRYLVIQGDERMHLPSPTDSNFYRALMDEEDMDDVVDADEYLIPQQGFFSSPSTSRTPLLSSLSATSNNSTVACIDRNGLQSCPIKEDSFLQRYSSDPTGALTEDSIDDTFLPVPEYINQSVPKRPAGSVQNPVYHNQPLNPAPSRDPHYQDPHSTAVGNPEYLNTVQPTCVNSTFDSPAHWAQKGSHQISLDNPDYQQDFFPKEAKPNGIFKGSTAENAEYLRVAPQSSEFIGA
Description: as §8, §9, §10

Sequence of EGFR-L858R/T790M (P00533 25-1210 T790M/L858R): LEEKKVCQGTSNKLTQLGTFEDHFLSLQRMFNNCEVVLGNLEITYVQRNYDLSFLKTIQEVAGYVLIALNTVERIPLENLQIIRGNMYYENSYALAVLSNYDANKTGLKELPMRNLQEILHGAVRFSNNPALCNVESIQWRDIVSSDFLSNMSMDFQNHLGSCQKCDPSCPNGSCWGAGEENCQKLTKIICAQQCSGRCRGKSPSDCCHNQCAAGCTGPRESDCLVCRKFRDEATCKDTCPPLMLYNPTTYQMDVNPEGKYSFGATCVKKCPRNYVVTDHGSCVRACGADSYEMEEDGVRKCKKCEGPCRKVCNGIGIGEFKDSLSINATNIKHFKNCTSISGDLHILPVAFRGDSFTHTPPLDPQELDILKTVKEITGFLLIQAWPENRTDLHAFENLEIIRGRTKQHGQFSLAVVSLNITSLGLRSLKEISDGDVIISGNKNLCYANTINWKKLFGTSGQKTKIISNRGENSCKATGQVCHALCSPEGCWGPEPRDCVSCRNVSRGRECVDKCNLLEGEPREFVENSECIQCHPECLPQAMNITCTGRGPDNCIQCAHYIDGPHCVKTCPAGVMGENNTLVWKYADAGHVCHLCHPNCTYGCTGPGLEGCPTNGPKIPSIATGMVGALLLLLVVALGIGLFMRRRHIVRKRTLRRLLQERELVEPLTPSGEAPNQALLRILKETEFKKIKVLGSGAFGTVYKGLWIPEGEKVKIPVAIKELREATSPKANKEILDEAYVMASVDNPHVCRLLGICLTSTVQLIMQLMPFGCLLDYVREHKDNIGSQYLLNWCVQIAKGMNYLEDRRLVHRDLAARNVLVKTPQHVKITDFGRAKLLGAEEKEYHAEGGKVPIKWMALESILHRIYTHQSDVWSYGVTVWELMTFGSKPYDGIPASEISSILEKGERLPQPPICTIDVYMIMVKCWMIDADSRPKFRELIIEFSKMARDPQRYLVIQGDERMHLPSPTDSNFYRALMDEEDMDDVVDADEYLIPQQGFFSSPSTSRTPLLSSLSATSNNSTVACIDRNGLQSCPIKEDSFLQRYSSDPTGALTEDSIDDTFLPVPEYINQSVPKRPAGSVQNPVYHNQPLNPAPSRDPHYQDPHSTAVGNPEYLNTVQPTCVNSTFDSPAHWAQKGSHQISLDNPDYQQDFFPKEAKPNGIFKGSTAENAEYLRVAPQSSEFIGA
Sequence of BLK (P51451 whole entry): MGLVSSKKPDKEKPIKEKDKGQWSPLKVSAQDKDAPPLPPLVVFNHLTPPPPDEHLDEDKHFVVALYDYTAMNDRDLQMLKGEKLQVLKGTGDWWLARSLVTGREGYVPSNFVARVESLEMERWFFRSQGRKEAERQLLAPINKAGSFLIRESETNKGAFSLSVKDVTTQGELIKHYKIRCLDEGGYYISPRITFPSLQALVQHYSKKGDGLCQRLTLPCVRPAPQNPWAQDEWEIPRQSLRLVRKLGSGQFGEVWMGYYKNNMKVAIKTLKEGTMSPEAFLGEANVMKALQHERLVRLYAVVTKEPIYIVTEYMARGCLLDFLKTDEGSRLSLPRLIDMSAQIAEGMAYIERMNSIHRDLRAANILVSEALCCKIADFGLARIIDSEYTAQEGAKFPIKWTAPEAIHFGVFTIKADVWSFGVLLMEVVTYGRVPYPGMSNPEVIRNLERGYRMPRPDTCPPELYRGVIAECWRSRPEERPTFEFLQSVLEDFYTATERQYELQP
Sequence of FLT3 (P36888 27-993): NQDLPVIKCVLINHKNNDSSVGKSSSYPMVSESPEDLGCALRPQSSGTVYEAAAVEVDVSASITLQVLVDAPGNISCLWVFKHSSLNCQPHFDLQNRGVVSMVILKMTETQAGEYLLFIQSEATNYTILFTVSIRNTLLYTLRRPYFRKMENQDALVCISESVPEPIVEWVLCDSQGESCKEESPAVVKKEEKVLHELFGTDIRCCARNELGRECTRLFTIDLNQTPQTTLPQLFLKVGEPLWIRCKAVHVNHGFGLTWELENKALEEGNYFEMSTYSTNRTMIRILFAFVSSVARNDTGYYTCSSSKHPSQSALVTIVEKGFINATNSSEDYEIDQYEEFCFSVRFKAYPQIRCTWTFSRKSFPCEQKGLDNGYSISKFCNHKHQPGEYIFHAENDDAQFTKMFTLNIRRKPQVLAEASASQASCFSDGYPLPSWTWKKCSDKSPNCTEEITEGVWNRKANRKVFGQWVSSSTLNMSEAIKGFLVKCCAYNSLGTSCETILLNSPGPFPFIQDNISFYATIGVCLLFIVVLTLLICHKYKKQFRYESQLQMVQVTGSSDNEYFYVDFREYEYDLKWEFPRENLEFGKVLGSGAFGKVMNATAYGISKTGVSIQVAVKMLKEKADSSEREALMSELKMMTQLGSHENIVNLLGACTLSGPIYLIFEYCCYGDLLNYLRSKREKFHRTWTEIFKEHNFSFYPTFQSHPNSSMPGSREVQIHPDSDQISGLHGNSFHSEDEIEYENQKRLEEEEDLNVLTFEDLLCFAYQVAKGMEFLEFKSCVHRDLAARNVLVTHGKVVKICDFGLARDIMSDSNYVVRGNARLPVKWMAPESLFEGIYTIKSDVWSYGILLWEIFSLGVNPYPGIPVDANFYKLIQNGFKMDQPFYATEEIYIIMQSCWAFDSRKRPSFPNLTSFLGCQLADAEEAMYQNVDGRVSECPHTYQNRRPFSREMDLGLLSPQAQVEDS
Sequence of EGFR-L858R (P00533 25-1210 L858R): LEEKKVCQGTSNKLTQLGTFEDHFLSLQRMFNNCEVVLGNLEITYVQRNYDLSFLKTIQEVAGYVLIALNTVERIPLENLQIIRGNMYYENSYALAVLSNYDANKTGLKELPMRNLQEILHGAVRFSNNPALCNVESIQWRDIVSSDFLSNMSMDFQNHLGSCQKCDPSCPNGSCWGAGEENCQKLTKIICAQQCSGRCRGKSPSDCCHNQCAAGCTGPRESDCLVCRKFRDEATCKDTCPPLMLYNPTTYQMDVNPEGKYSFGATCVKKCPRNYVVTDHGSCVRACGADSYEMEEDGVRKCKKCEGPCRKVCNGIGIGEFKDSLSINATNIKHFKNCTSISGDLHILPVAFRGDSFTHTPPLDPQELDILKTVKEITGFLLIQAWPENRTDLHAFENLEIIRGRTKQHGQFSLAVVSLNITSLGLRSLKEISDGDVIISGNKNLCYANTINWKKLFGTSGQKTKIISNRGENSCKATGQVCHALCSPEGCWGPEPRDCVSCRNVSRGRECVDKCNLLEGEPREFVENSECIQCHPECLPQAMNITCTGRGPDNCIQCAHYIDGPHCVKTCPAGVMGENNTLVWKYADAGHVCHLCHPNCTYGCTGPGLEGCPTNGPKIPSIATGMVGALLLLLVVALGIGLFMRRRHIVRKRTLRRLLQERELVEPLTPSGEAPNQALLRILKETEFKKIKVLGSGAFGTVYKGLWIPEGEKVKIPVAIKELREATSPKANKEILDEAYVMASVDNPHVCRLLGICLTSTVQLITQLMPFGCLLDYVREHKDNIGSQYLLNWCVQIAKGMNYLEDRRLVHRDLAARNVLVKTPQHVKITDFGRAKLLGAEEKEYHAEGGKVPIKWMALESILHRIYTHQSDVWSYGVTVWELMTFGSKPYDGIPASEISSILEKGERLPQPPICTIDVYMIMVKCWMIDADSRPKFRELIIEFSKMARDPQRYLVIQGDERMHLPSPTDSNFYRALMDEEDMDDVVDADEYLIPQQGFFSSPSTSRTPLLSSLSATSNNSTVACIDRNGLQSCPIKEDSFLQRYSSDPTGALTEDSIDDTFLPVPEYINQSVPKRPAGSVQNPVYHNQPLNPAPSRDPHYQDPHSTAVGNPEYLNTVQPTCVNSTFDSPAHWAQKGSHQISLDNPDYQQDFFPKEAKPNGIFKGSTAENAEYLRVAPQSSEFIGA

Compound | IC50 (EGFR-L858R/T790M) | IC50 [1] | IC50 [2] | IC50 (EGFR-L858R) | IC50 (FLT3) | IC50 (BLK) | IC50 (wild-type EGFR)
C=CC(=O)Oc1ccc(-n2c(=O)cnc3cnc(Nc4ccc(OC)cc4)nc32)cc1 [Compound 011, 4-(2 (4-methoxyphenylamino)-7-oxo-8(7H)-pteridin-yl)phenyl acrylate] | 70.3 nM | 5.6 µM | 2.29 µM | 84.8 nM | 48 nM | 89 nM | 67 nM
CN(C)C/C=C/C(=O)Nc1ccc(-n2c(=O)cnc3cnc(Nc4ccccc4)nc32)cc1 [Compound 012, 4-(dimethylamino)-N-(4-(7-oxo-2-(phenylamino)-8(7H)-pteridin-yl)phenyl)-2-buteneamide] | 1920 nM | 18.9 µM | 4.42 µM | 5340 nM | 160 nM | 6320 nM | 5980 nM
CN(C)C/C=C/C(=O)Nc1cccc(-n2c(=O)cnc3cnc(Nc4ccccc4)nc32)c1 [Compound 013, 4-(dimethylamino)-N-(3-(7-oxo-2-(phenylamino)-8(7H)-pteridin-yl)phenyl)-2-buteneamide] | – | – | – | – | 3780 nM | 171 nM | –
C=CC(=O)Nc1ccc(-n2c(=O)cnc3cnc(Nc4ccccc4)nc32)cc1 [Compound 014, N-(4-(7-oxo-2-(phenylamino)-8(7H)-pteridin-yl)phenyl) acrylamide] | 113 nM | 77.8 µM | 68.1 µM | 26.4 nM | 129 nM | 7480 nM | 16.1 nM
C=CC(=O)Nc1cccc(-n2c(=O)cnc3cnc(Nc4ccccc4)nc32)c1 [Compound 015, N-(3-(7-oxo-2-(phenylamino)-8(7H)-pteridin-yl)phenyl)acrylamide] | – | 0.437 µM | – | – | 1860 nM | – | –
C=CC(=O)Nc1ccc(-n2c(=O)cnc3cnc(Nc4ccc(Cl)cc4)nc32)cc1 [Compound 016, N-(4-(2-(4-chlorophenylamino)-7-oxo-8(7H)-pteridin-yl)phenyl) acrylamide] | 1490 nM | 20.8 µM | 68.7 µM | 116 nM | 358 nM | > 10000 nM | 7580 nM
C=CC(=O)Nc1cccc(-n2c(=O)cnc3cnc(Nc4ccc(Cl)cc4)nc32)c1 [Compound 017, N-(3-(2-(4-chlorophenylamino)-7-oxo-8(7H)-pteridin-yl)phenyl) acrylamide] | 70.3 nM | 0.82 µM | 0.163 µM | 84.8 nM | 2820 nM | 156 nM | 67 nM
C=CC(=O)Nc1cccc(-n2c(=O)cnc3cnc(Nc4ccc(N5CCOCC5)cc4)nc32)c1 [Compound 018, N-(3-(2-(4-morpholinophenylamino)-7-oxo-8(7H)-pteridin-yl)phenyl) acrylamide] | 3.02 nM | 0.216 µM | 0.017 µM | 5.83 nM | 798 nM | 41 nM | 7.94 nM
C=CC(=O)Nc1ccc(-n2c(=O)cnc3cnc(Nc4ccc(N5CCN(C)CC5)cc4)nc32)cc1 [Compound 019, N-(4-(2-(4-(4-methyl-1-piperazinyl)-phenylamino)-7-oxo-8(7H)-pteridin-yl)phenyl) acrylamide] | 738 nM | 8.87 µM | 0.676 µM | 6380 nM | 51 nM | 796 nM | 1260 nM
C=CC(=O)Nc1cccc(-n2c(=O)cnc3cnc(Nc4ccc(N5CCCCC5)cc4)nc32)c1 [Compound 021, N-(3-(7-oxo-2-(4-(1-piperidinyl)phenylamino)-8(7H)-pteridinyl)phenyl) acrylamide] | 5.49 nM | 0.238 µM | 0.02 µM | 11.7 nM | 878 nM | 83 nM | 19.7 nM
C=CC(=O)Nc1ccc(Nc2ncc3ncc(=O)n(-c4ccc(OC)cc4)c3n2)cc1 [Compound 029, N-(4-(8-(4-methoxyphenyl)-7-oxo-7,8-dihydro-pteridin-2-amino)phenyl) acrylamide] | > 10000 nM | 0.953 µM | 0.543 µM | 1320 nM | 100 nM | > 10000 nM | > 10000 nM

Now from value to compound:

IC50 (EGFR-L858R/T790M) | IC50 [1] | IC50 [2] | IC50 (EGFR-L858R) | IC50 (FLT3) | IC50 (BLK) | IC50 (wild-type EGFR) | Compound
5.33 nM | 0.531 µM | 0.073 µM | 12.6 nM | 1080 nM | 98 nM | 23.3 nM | C=CC(=O)Nc1cccc(-n2c(=O)cnc3cnc(Nc4ccc(N5CCCC5)cc4)nc32)c1 [Compound 022, N-(3-(7-oxo-2-(4-(1-pyrrolidinyl)phenylamino)-8(7H)-pteridin-yl)phenyl) acrylamide]
5.57 nM | 0.477 µM | 0.031 µM | 16.3 nM | 1760 nM | 83 nM | 23.1 nM | C=CC(=O)Nc1cccc(-n2c(=O)cnc3cnc(Nc4ccc(N(CC)CC)cc4)nc32)c1 [Compound 023, N-(3-(2-(4-(diethylamino)phenylamino)-7-oxo-8(7H)-pteridin-yl)phenyl) acrylamide]
5.12 nM | 6.08 µM | 0.229 µM | 13.4 nM | 3550 nM | 148 nM | 15.8 nM | C=CC(=O)Nc1cccc(-n2c(=O)cnc3cnc(Nc4ccc(NC(C)=O)cc4)nc32)c1 [Compound 024, N-(3-(2-(4-(acetylamino)-phenylamino)-7-oxo-8(7H)-pteridin-yl)phenyl) acrylamide]
4.39 nM | 7.3 µM | 0.604 µM | 9.64 nM | 1790 nM | 76 nM | 12.7 nM | C=CC(=O)Nc1cccc(-n2c(=O)cnc3cnc(Nc4ccc(C(N)=O)cc4)nc32)c1 [Compound 025, 4-(8-(3-acrylamidephenyl)-7-oxo-7,8-dihydropteridinyl-2-amino)benzamide]
– | – | – | – | 568 nM | 96 nM | – | C=CC(=O)Nc1cccc(-n2c(=O)c(C)nc3cnc(Nc4ccc(OC)cc4)nc32)c1 [Compound 026, N-(3-(2-(4-methoxyphenylamino)-6-methyl-7-oxo-8(7H)-pteridin-yl)phenyl) acrylamide]
1200 nM | 3.05 µM | 0.408 µM | 1710 nM | 119 nM | 5660 nM | 2000 nM | C=CC(=O)Nc1cccc(Nc2ncc3ncc(=O)n(-c4ccc(OC)cc4)c3n2)c1 [Compound 027, N-(3-(8-(4-methoxyphenyl)-7-oxo-7,8-dihydro-pteridin-2-amino)phenyl) acrylamide]
3530 nM | 82.8 µM | 15.9 µM | 18900 nM | 34 nM | 7950 nM | 10600 nM | COc1ccc(-n2c(=O)cnc3cnc(Nc4cccc(N)c4)nc32)cc1 [Compound 028, 2-(3-aminophenylamino)-8-(4-methoxyphenyl)-7(8H)-pteridin-one]
– | 0.039 µM | 0.014 µM | – | – | – | – | C=CC(=O)Nc1cccc(Oc2nc(Nc3ccc(N4CCN(C)CC4)cc3OC)ncc2Cl)c1 [WZ4002, reference compound]
